Laboratory results published in patent US8173808B2, “Substituted naphthalenyl-pyrimidine compounds” (ArQule, Inc., priority 2009, dated 2012).

Columns and labels:
FGFR2 kinase = FGFR2 kinase fluorescent ELISA assay; format: biochemical; conditions: class symbol for inhibition
Method: A fluorescent ELISA assay was developed to identify and characterize inhibitors of FGFR2 kinase. This heterogeneous assay utilizes a biotinylated peptide with a tyrosine motif as a substrate and an anti-phospho-tyrosine antibody to measure phosphorylation of the substrate. The reaction is initiated by adding test compound, 37 uM Pyk2 substrate (Midwest Biotech, cat. #MBT2383) and 12.5 μM ATP (Roche, cat. #11 140 965 001), and 0.5 μM FGFR2 enzyme (Millipore, cat. #14-742) sequentially to a non-binding polypropylene V-well plate. All reagents are in assay buffer consisting of: 50 mM Tris-HCL, 0.02 mg/mL BSA, 10 mM MgCl2, 0.1 mM Na3VO4, 1 mM EGTA, 75 μM ATP, 0.01% NP-40, 2 mM DTT, 10% Glycerol. The reaction is incubated for 60 minutes. As the reaction proceeds, FGFR2 phosphorylates tyrosines in the peptide. The reaction mixture is then moved to a blocked streptavidin coated Nunc Maxisorb plate (coated with 100 ng streaptavidin from Pierce (cat #15-124) per well) allowing for the capture of the biotinylated peptide. Peptide is captured for 30 minutes at room temperature, the phosphorylation of peptide continues during this phase. The reaction is stopped by washing the Streptavidin plate 6 times with TBST. Phosphorylated peptide is detected by adding anti-phospho tyrosine antibody (purchased from Cell Signaling, cat. #9411, diluted 1:3000), unbound antibody is removed by washing 6 times with TBST. Secondary detection is performed using Alkaline Phosphatase tagged goat anti-mouse antibody (purchased from Pierce, cat. #31320, diluted 1:4000) for one hour. Unbound secondary antibody is removed by washing 6 times with TBST.
The fluorescent readout is initiated by the addition of Promega Attophos substrate (purchased from Promega; Kit catalog number: S1000, dilution=6 mg/10 mL), which when dephosphorylated by Alkaline phosphatase emits a fluorescent signal of […] when excited by a signal […]. This reading is done on the Perkin Elmer Envision system. Compounds which prevent the FGFR2 from phosphorylating the peptide result in a lower fluorescent signal. The signal is directly proportional to the activity of FGFR2 and compound inhibition of FGFR2 is monitored by a decrease in signal.

[1] = biological target: full length inactive AKT1 protein (Homo sapiens, UniProt P31749); assay: AKT activity; thermal shift binding assay; conditions: class symbol for inhibition
Method: Aliquots of compounds in DMSO (1 μL @ 375 μM) were placed in the V bottom 96 well PCR plate, and incubated for 30 minutes with 24 μL of AKT1 protein in 25 mM TRIS buffer pH 7.5, 100 mM NaCl, 0.1% 2-mercaptoethanol, pre-mixed with environmentally sensitive fluorescent dye Sypro Orange (12.5×). The plates were centrifuged for […] @ 2000 rpm and 25° C. before the analysis on the IQ5 Real time PCR machine (Biorad). The thermal stability of the protein-ligand complex was monitored by changes in Sypro Orange fluorescence while subjecting the binding mixture to a temperature gradient of 30 to 75° C. at 1° C./min heating rate. Shifts in the protein melting temperature (ΔTm) greater than 0.6° C. compared to the protein alone were indicative of the inhibitor binding. Dissociation constants (Kd's) for the inhibitors were calculated from the melting curves as described in Mei-Chu-Lo et al., Anal.Biochem., 332: 153, 2004.

p70S6K = biological target: T1, p70S6K (Homo sapiens, UniProt P23443); assay: p70S6 kinase activity assay (HTRF); format: biochemical; conditions: class symbol for inhibition
T1 construct: purchased Upstate/Millipore
Method: p70S6K activity was assayed using Cisbio's homogeneous time-resolved fluorescence (HTRF®) technology. The extent of phosphorylation of the biotinylated peptide substrate STK-S3 is determined using a phospho-specific STK Antibody labeled with Eu^3+-cryptate and streptavidin-XL665 that will bind to the biotin on the peptide. When in close proximity, excitation of the Eu^3+ cryptate donor fluorophore results in fluorescence resonance energy transfer (FRET) to the XL665 acceptor fluorophore and the emission signal from XL665 is measured.
The assay is performed using reagents from the HTRF® KinEASE™-STK kit from Cisbio including enzymatic buffer (50 mM HEPES pH7, 0.02% NaN3, 0.01% BSA, and 0.1 mM Na3VO4), STK-S3 substrate-biotin, Eu^3+-Cryptate labeled STK antibody, Streptavidin-XL665, and detection buffer (50 mM HEPES pH 7, 0.1% BSA, 0.8M KF, and 20 mM EDTA). Test inhibitors and controls (staurosporine) are prepared at 5× the desired final concentration. Test compound (5.0 μL), p70S6 (10 μL) from Upstate/Millipore (final concentration is 2.5 ng/well), and 10 μL substrate/ATP are added to each well of a reaction plate (Corning 96-well half-area solid black nonbinding surface plate). All reaction components are diluted in enzymatic buffer supplemented with 2 mM MgCl2 and 1 mM DTT. The final concentration of STK-S3 substrate is 500 nM and the final concentration of ATP is 100 μM.

Sequence of full length inactive AKT1 protein (P31749 whole entry): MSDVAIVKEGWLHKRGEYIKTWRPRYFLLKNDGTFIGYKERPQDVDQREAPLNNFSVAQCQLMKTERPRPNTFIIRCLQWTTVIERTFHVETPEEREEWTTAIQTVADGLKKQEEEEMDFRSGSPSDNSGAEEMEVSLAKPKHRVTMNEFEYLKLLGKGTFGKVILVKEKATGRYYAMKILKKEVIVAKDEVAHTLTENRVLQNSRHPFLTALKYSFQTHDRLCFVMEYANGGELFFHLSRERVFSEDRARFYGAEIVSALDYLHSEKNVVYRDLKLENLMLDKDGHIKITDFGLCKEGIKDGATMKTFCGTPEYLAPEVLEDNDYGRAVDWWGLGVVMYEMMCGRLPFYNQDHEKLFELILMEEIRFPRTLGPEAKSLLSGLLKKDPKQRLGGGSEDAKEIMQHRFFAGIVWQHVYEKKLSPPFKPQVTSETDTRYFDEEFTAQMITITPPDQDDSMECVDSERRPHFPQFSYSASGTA
T1 sequence (P23443 whole entry): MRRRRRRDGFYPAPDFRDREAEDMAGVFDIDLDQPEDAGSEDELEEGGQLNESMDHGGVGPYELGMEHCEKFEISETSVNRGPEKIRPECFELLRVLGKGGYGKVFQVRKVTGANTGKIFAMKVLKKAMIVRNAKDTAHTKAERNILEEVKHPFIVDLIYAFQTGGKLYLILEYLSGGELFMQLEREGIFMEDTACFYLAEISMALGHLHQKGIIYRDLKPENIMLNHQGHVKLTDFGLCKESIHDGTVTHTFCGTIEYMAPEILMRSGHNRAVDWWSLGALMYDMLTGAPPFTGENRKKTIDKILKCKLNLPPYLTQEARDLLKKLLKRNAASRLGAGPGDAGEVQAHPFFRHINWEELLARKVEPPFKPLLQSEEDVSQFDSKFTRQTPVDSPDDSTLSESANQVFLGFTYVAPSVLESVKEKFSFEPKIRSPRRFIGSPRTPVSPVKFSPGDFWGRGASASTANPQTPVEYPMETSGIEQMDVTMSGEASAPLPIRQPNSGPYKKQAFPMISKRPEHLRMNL

Compound	FGFR2 kinase activity (FGFR2 kinase)	AKT activity [1]	p70S6 kinase activity (p70S6K)	melting point [°C]
2-acetamido-N-(3-(5-benzoyl-7H-pyrrolo[2,3-d]pyrimidin-4-ylamino)phenyl)acetamide [Compound 2a]	− (A negative sign indicates that inhibition is less than 25%)	− (A negative sign indicates that inhibition is less than 25%)	+ (A positive sign indicates that inhibition is greater or equal to 25%)	
3-acetamido-N-(3-(5-benzoyl-7H-pyrrolo[2,3-d]pyrimidin-4-ylamino)phenyl)propanamide [Compound 4a]	− (A negative sign indicates that inhibition is less than 25%)	− (A negative sign indicates that inhibition is less than 25%)	+ (A positive sign indicates that inhibition is greater or equal to 25%)	
COc1cccc(CNc2nccc(-c3cc(N4CCN(CCCN(C)C)CC4)c4cc(OC)ccc4c3)n2)c1 [Compound 195, 4-(4-(4-(3-(dimethylamino)propyl)piperazin-1-yl)-6-methoxynaphthalen-2-yl)-N-(3-methoxybenzyl)pyrimidin-2-amine]				70 to 75
COc1cccc(CNc2nccc(-c3cc(N4CCN(CCCN5CCOCC5)CC4)c4cc(OC)ccc4c3)n2)c1 [Compound 196, 4-(6-methoxy-4-(4-(3-morpholinopropyl)piperazin-1-yl)naphthalen-2-yl)-N-(3-methoxybenzyl)pyrimidin-2-amine]				65 to 73
(4-(3-aminophenylamino)-7H-pyrrolo[2,3-d]pyrimidin-5-yl)(phenyl)methanone [Compound 5a]	− (A negative sign indicates that inhibition is less than 25%)	+ (A positive sign indicates that inhibition is greater or equal to 25%)	+ (A positive sign indicates that inhibition is greater or equal to 25%)	
N-(3-(3-benzoyl-1H-indol-4-ylamino)phenyl)-3-(pyridin-3-yl)propanamide [Compound 1a]	− (A negative sign indicates that inhibition is less than 25%)	+ (A positive sign indicates that inhibition is greater or equal to 25%)	+ (A positive sign indicates that inhibition is greater or equal to 25%)	
N-(3-(5-benzoyl-7-methyl-7H-pyrrolo[2,3-d]pyrimidin-4-ylamino)phenyl)acetamide [Compound 6a]	− (A negative sign indicates that inhibition is less than 25%)	+ (A positive sign indicates that inhibition is greater or equal to 25%)	− (A negative sign indicates that inhibition is less than 25%)	
N-(3-(5-benzoyl-7H-pyrrolo[2,3-d]pyrimidin-4-ylamino)phenyl)-2-(dimethylamino)acetamide [Compound 7a]	− (A negative sign indicates that inhibition is less than 25%)	− (A negative sign indicates that inhibition is less than 25%)	+ (A positive sign indicates that inhibition is greater or equal to 25%)	
N-(3-(5-benzoyl-7H-pyrrolo[2,3-d]pyrimidin-4-ylamino)phenyl)-4-(dimethylamino)butanamide [Compound 3a]	− (A negative sign indicates that inhibition is less than 25%)	− (A negative sign indicates that inhibition is less than 25%)	+ (A positive sign indicates that inhibition is greater or equal to 25%)	
N-(3-(5-benzoyl-7H-pyrrolo[2,3-d]pyrimidin-4-ylamino)phenyl)-5-(pyrrolidin-1-yl)pentanamide [Compound 8a]	+ (A positive sign indicates that inhibition is greater or equal to 25%)	+ (A positive sign indicates that inhibition is greater or equal to 25%)	− (A negative sign indicates that inhibition is less than 25%)	
N-(3-(5-benzoyl-7H-pyrrolo[2,3-d]pyrimidin-4-ylamino)phenyl)acetamide [Compound 9a]	− (A negative sign indicates that inhibition is less than 25%)	+ (A positive sign indicates that inhibition is greater or equal to 25%)	− (A negative sign indicates that inhibition is less than 25%)	
N^1-(3-(5-benzoyl-7H-pyrrolo[2,3-d]pyrimidin-4-ylamino)phenyl)succinamide [Compound 10a]	+ (A positive sign indicates that inhibition is greater or equal to 25%)	− (A negative sign indicates that inhibition is less than 25%)	− (A negative sign indicates that inhibition is less than 25%)	
